# Experiments:
# [1] = system: SL biosynthesis genes (D27, CCD7, CCD8 and CO); assay: qRT-PCR of transcript levels of SL biosynthesis genes (all four together) in rice roots; type: in vivo; details: Shiokari wild-type and d3 seedlings, phosphate-starved, 5 μM, 6 h
# Protocol: For the analysis of SL transcript levels in the zas mutant, one week-old seedlings were grown hydroponically in half-strength modified Hoagland nutrient solution with K2HPO4·2H2O (+Pi) and without K2HPO4·2H2O (−Pi) for 7 days. Seedlings were further treated with zaxinone for 6 h and tissues were collected.
# (§1) Total RNA was extracted from the roots and shoots using a Qiagen Plant RNeasy Kit according to the manufacturer's instruction. cDNA was synthesized from 1 μg of total RNA using iScript cDNA Synthesis Kit (BIO-RAD Laboratories, Inc, 2000 Alfred Nobel Drive, Hercules, CA, Cat. No #170-8890) according to instructions in the user manual. For mycorrhizal samples, single-strand cDNA was synthesized from 1 μg of total RNA using Super-Script II (Invitrogen) according to instructions in the user manual. Primers used for real-time quantitative RT-PCR (qRT-PCR) analysis are listed below in Table 3. qRT-PCR was performed using SYBR Green Master Mix (Applied Biosystems; www.lifetechnologies.com) in a StepOnePlus (Life Technologies, Carlsbad, CA, USA). For mycorrhizal samples, qRT-PCR was performed using a Rotor-Gene Q 5plex HRM Platform (Qiagen). The 2-ΔCt method was used to calculate the relative gene expression levels and rice Ubiquitin (OsUBQ or OsRubQ1) gene was used as the internal control to normalize target gene expression.
# Two week-old seedlings were grown for another one week in −Pi solution and then transferred to new vials containing fresh −Pi solution with and without the indicated concentrations (2.5 μM, 5 μM, 10 μM and 20 μM) of zaxinone for 6 h and samples were collected. SL biosynthetic genes expression for D27 (FIG. 19A), CCD7 […], CCD8 (FIG. 19C), and CO (Carlactone oxidase-FIG. 19D) in WT and zas mutants. […] The expression levels were detected by quantitative RT-PCR. Ubiquitin was used as a reference gene and the expression levels in the WT-mock were normalized to 1. Bars represent mean±SD (n=3). Different letters above each bar denote significant difference following a One-way ANOVA test (P<0.05).
# Transcript levels of SL biosynthesis genes, D27 (FIG. 24C), CCD7/D17 (FIG. 24D), CCD8/D10 (FIG. 24E) and OsCO (Carlactone oxidase—FIG. 24F) in root tissues were collected for SL quantification. The expression levels were detected by qRT-PCR. Ubiquitin was used as a reference gene and the expression levels in the WT-mock were normalized to 1. Two week-old seedlings were grown for another one week in −Pi solution and then transferred to new vials containing fresh −Pi solution with and without 5 μM of zaxinone and GR24 for 6 h and samples were collected. Bars represent mean±SD (n=3). Different letters above each bar denote significant difference following a One-way ANOVA test (P<0.05).
# Zaxinone Synthase (ZAS) = assay: qRT-PCR of ZAS transcript levels in rice after zaxinone or GR24; type: in vivo, rice (Nipponbare); details: WT rice, phosphate starvation, 5 μM, 6 h
# Protocol: as §1
# FIGS. 14A-14C show transcript levels of Zaxinone Synthase (ZAS) in wild type roots and shoots. In FIG. 14A, the relative expression levels of ZAS under normal (+Pi) and phosphate-starved (−Pi) conditions in Nipponbare wild-type (WT) roots and shoots is seen. The expression levels in the WT root were normalized to 1. In FIG. 14B, the relative expression levels of ZAS under −Pi conditions with 5 μM of Zaxinone and GR24 treatment in WT rice root and shoot is seen. Three weeks-old seedlings were transferred to new hydroponic pots containing fresh media with or without chemicals for 6 h. The expression levels in the WT-mock were normalized to 1 and the expression levels were detected by qRT-PCR. Ubiquitin was used as a reference gene. Bars represent mean±SD (n=3). Mock treatment (0.1% acetone). Different letters above each bar denote significant difference following a One-way ANOVA test (P<0.05).
smiles,measurement,setting,value
"CC1=C[C@H](O/C=C2/C(=O)O[C@@H]3c4ccccc4C[C@H]23)OC1=O [GR24, reference compound]",SL transcript levels in roots,[1],affected the transcript levels only in wild-type seedlings
same,ZAS transcript levels in root tissues,Zaxinone Synthase (ZAS),negatively impacted

# Reference: patent US11839210B1, “Plant growth promoter with strigolactones regulation activities” (King Abdullah University of Science and Technology, priority 2017, dated 2023)
